Numbered stars: 1 amine (or outer) side, 2 acyl side, 3 side chain; on linkers, the order of the positions; unused ones are H or OH. Bridge positions count the residues as written; N and C are the ends. Square brackets hold non-standard residues; d marks the D form. Peptide text beside a SMILES is read from it. * marks the point of attachment. X3 = NC(=O)[C@H](CCCCNC(=O)CN1CCN(CC(=O)O)CCN(CC(=O)O)CCN(CC(=O)O)CC1)NC(=O)CCC(=O)NCCCOCCOCCOCCCN*; DOTA = O=C(O)CN1CCN(CC(=O)O)CCN(CC(=O)*)CCN(CC(=O)O)CC1; X12 = NCCNCC(CNCCN)C(=O)NCCCOCCOCCOCCCN*; mXylylene = c1cc(C[*:1])cc(C[*:2])c1; X51 = O=C(CN1CCC(N[*:1])CC1)[*:2]; 4Pal = N[C@@H](Cc1ccncc1)C(=O)O; Suc = O=C(CCC(=O)[*:2])[*:1]; X18 = NCCNCC(CNCCN)C(=O)*; Nle = CCCC[C@H](N)C(=O)O; Hexanoyl = CCCCCC(=O)*
Assays:
Human recombinant FAP = molecular target: T1, Human recombinant FAP (Homo sapiens, UniProt Q12884); assay: FRET-based FAP protease activity assay; format: biochemical; set-up: purchased R&D systems 3715-SE; details: pIC50 Category (Activity), FRET substrate, 37° C.
T1 sequence (Q12884 1-760): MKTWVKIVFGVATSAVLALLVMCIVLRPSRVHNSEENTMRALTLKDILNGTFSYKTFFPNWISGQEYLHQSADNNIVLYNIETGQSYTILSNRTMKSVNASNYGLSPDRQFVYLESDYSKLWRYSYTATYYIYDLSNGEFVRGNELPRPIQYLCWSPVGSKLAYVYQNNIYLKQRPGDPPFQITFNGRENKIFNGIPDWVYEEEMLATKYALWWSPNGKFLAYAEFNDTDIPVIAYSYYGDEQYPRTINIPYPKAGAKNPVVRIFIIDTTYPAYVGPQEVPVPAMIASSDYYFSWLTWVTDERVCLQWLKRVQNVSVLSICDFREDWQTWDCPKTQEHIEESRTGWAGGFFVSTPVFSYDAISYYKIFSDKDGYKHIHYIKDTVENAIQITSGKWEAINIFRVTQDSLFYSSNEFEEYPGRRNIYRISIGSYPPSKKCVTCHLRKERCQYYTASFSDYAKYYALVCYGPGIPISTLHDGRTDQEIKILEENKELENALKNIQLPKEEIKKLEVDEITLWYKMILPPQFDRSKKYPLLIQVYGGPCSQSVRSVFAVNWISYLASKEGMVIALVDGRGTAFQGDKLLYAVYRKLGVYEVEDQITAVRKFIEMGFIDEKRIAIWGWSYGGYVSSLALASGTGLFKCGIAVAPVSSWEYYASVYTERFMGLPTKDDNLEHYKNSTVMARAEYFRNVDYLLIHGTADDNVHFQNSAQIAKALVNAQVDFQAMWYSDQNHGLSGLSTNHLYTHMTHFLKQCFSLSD

[1] = molecular target: T2, FAP-expressing human WI-38 fibroblasts (Homo sapiens, UniProt Q12884); assay: Competitive FACS binding assay; details: competition with 3 nM Cy5-labeled compound, 4° C., 1 hour; for IC50: pIC50 Category (FACS)
T2 construct: FAP-expressing human WI-38 fibroblasts (ECACC) were cultured in EMEM; host or cells: WI-38 human fibroblasts
T2 sequence (Q12884 1-760): T1 sequence (Q12884 1-760)
Procedure: Cells were analyzed in an Attune NxT flow cytometer. […]

Compound	IC50 (Human recombinant FAP; recombinant human FAP) [nM]	IC50 ([1]; WI-38 fibroblasts) [nM]	IC50 (Human recombinant FAP) [nM]	IC50 [1] [nM]	pIC50 Category (FACS) [1]
CCCCCC(=O)N[C@H]1CSCc2cc(CSCCNC(=O)CN3CCN4CCN(CC(=O)O)CCN(CC3)CC(=O)[O][Cu][O]C(=O)C4)cc(c2)CSC[C@@H](C(=O)O)NC(=O)[C@H](Cc2ccccc2)NC(=O)[C@H](CCC(N)=O)NC(=O)[C@H]([C@@H](C)O)NC(=O)[C@@H]2CCCN2C(=O)[C@@H]2CCCN2C1 [3BP-4293, Copper(II)-Complex of Hex-[Cys(tMeBn(DOTA-AET))-Pro-Pro-Thr-Gln-Phe-Cys]-OH]	–	–	< 10	< 10	–
CCCCCC(=O)N[C@H]1CSCc2cc(CSCCNC(=O)CCCCC3(N(C)CC(=O)O)CN(CC(=O)O)CCN(CC(=O)O)C3)cc(c2)CSC[C@@H](C(=O)O)NC(=O)[C@H](Cc2ccccc2)NC(=O)[C@H](CCC(N)=O)NC(=O)[C@H]([C@@H](C)O)NC(=O)[C@@H]2CCCN2C(=O)[C@@H]2CCCN2C1=O [3BP-4382, Hex-[Cys-(tMeBn(DATA-AET))-Pro-Pro-Thr-Gln-Phe-Cys]-OH]	–	–	10 to 79.4	10 to 79.4	–
CCCCCS(=O)(=O)N[C@H]1CSCc2cc(CSCCNC(=O)CN3CCN(CC(=O)O)CCN(CC(=O)O)CCN(CC(=O)O)CC3)cc(c2)CSC[C@@H](C(=O)O)NC(=O)[C@H](Cc2ccccc2)NC(=O)[C@H](CCC(N)=O)NC(=O)[C@H]([C@@H](C)O)NC(=O)[C@@H]2CCCN2C(=O)[C@@H]2CCCN2C1=O [3BP-3691, Pentyl-SO2-[Cys(tMeBn(DOTA-AET))-Pro-Pro-Thr-Glu-Phe-Cys]-OH]	–	–	10 to 79.4	–	A (pIC50 values >8.0)
CCCCCC(=O)N[C@H]1CSCc2cc(CSCCNC(=O)CCC(=O)NCCCOCCOCCOCCCNC(=O)CN3CCN(CC(=O)O)CCN(CC(=O)O)CC3)cc(c2)CSC[C@@H](C(=O)O)NC(=O)[C@H](Cc2ccccc2)NC(=O)[C@H](CCC(N)=O)NC(=O)[C@H]([C@@H](C)O)NC(=O)[C@@H]2CCCN2C(=O)[C@@H]2CCCN2C1=O [3BP-4344, Hex-[Cys-(tMeBn(NOTA-Ttds-AET))-Pro-Pro-Thr-Gln-Phe-Cys]-OH]	–	–	< 10	< 10	–
CCCC(NC(=O)CCC(=O)NCCCOCCOCCOCCCNC(=O)CN1CCN(CC(=O)O)CCN(CC(=O)O)CCN(CC(=O)O)CC1)C(=O)N[C@H]1CSCc2cc(CSCCNC(=O)CN3CCN(CC(=O)O)CCN(CC(=O)O)CCN(CC(=O)O)CC3)cc(c2)CSC[C@@H](C(=O)O)NC(=O)[C@H](Cc2ccccc2)NC(=O)[C@H](CCC(N)=O)NC(=O)[C@H]([C@@H](C)O)NC(=O)[C@@H]2CCCN2C(=O)[C@@H]2CCCN2C1=O (stereo partly drawn) [3BP-4386, DOTA-Ttds-Nle-[Cys(tMeBn(DOTA-AET))-Pro-Pro-Thr-Gln-Phe-Cys]-OH]	–	–	10 to 79.4	10 to 79.4	–
CCCC[C@H](NC(=O)CN1CCC(NC(=O)C(CNCCN)CNCCN)CC1)C(=O)N[C@H]1CSCc2cccc(c2)CSC[C@@H](C(=O)O)NC(=O)[C@H](Cc2ccccc2)NC(=O)[C@H](CCC(=O)O)NC(=O)[C@H]([C@@H](C)O)NC(=O)[C@@H]2CCCN2C(=O)[C@@H]2CCCN2C1=O [3BP-4220, N4Ac-APAc-Nle-[Cys-(3MeBn)-Pro-Pro-Thr-Glu-Phe-Cys]-OH] (X18-[X51][Nle]CPPTEFC-OH; linker 3-9 via mXylylene)	–	–	> 1000	> 1000	–
CCCCCC(=O)N[C@H]1CSCc2cc(CSCCNC(=O)CN(CCN(CCN(CC(=O)O)CC(=O)O)CC(=O)O)CC(=O)O)cc(c2)CSC[C@@H](C(=O)O)NC(=O)[C@H](Cc2ccccc2)NC(=O)[C@H](CCC(N)=O)NC(=O)[C@H]([C@@H](C)O)NC(=O)[C@@H]2CCCN2C(=O)[C@@H]2CCCN2C1=O [3BP-4309, Hex-[Cys-(tMeBn(DTPA2-AET))-Pro-Pro-Thr-Gln-Phe-Cys]-OH]	–	–	10 to 79.4	10 to 79.4	–
CSCC[C@H](NC(C)=O)C(=O)N[C@H]1CSCc2cccc(c2)CSC[C@@H](C(=O)N[C@@H](CC(=O)O)C(=O)N[C@@H](Cc2c[nH]cn2)C(=O)N[C@@H](Cc2ccccc2)C(=O)N[C@@H](CCCNC(=N)N)C(=O)N[C@@H](CC(=O)O)C(N)=O)NC(=O)[C@H](Cc2ccccc2)NC(=O)[C@H](CCC(=O)O)NC(=O)[C@@H]([C@H](C)O)NC(=O)[C@@H]2CCCN2C(=O)[C@@H]2CCCN2C1=O [3BP-3178, Ac-Met-[Cys(3MeBn)-Pro-Pro-thr-Glu-Phe-Cys]-Asp-His-Phe-Arg-Asp-NH2] (Ac-MCPP[dT]EFCDHFRD-NH2; linker 2-8 via mXylylene)	10 to 79.4	10 to 79.4	–	–	–
C[C@@H](O)[C@@H]1NC(=O)[C@@H]2CCCN2C(=O)[C@@H]2CCCN2C(=O)[C@@H](NC(=O)[C@H](CCC(=O)O)NC(=O)CCC(=O)NCCCOCCOCCOCCCNC(=O)C(CNCCN)CNCCN)CSCc2cccc(c2)CSC[C@@H](C(=O)O)NC(=O)[C@H](Cc2ccccc2)NC(=O)[C@H](CCC(=O)O)NC1=O [3BP-4233, N4Ac-Ttds-Glu-[Cys-(3MeBn)-Pro-Pro-Thr-Glu-Phe-Cys]-OH] ({X12-Suc}-ECPPTEFC-OH; linker 2-8 via mXylylene)	–	–	> 1000	100 to 794	–

The next lines start with results.

IC50 (Human recombinant FAP; recombinant human FAP) [nM]	IC50 ([1]; WI-38 fibroblasts) [nM]	Compound	IC50 (Human recombinant FAP) [nM]	IC50 [1] [nM]	pIC50 Category (FACS) [1]
< 10	< 10	CSCC[C@H](NC(C)=O)C(=O)N[C@H]1CSCc2cccc(c2)CSC[C@@H](C(=O)N[C@@H](CC(=O)O)C(=O)N[C@@H](Cc2c[nH]cn2)C(=O)N[C@@H](Cc2ccccc2)C(=O)N[C@@H](CCCNC(=N)N)C(=O)N[C@H](CC(=O)O)C(N)=O)NC(=O)[C@H](Cc2ccccc2)NC(=O)[C@H](CCC(=O)O)NC(=O)[C@H]([C@@H](C)O)NC(=O)[C@@H]2CCCN2C(=O)[C@@H]2CCCN2C1=O [3BP-3213, Ac-Met-[Cys(3MeBn)-Pro-Pro-Thr-Glu-Phe-Cys]-Asp-His-Phe-Arg-asp-NH2] (Ac-MCPPTEFCDHFR[dD]-NH2; linker 2-8 via mXylylene)	–	–	–
10 to 79.4	100 to 794	CCCCCC(=O)N[C@H]1CSCc2cccc(c2)CSC[C@@H](C(N)=O)NC(=O)[C@H](Cc2ccccc2)NC(=O)[C@H](CCC(=O)O)NC(=O)[C@H]([C@@H](C)O)NC(=O)[C@@H]2CCCN2C(=O)CNC1=O [3BP-3345, Hex-[Cys(3MeBn)-Gly-Pro-Thr-Glu-Phe-Cys]-NH2] (Hexanoyl-CGPTEFC-NH2; linker 1-7 via mXylylene)	–	–	–
< 10	< 10	CCCCCC(=O)N[C@H]1CSCc2cccc(c2)CSC[C@@H](C(=O)N[C@@H](CC(=O)O)C(=O)N[C@@H](CCCNC(=N)N)C(=O)O)NC(=O)[C@H](Cc2ccccc2)NC(=O)[C@H](CCC(=O)O)NC(=O)[C@H]([C@@H](C)O)NC(=O)[C@@H]2CCCN2C(=O)[C@@H]2CCCN2C1=O [3BP-3299, Hex-[Cys(3MeBn)-Pro-Pro-Thr-Glu-Phe-Cys]-Asp-Arg-NH2] (Hexanoyl-CPPTEFCDR-OH; linker 1-7 via mXylylene)	–	–	–
< 10	< 10	CCCCCC(=O)N[C@H]1CSCc2cccc(c2)CSC[C@@H](C(=O)N[C@@H](CC(=O)O)C(=O)N[C@@H](Cc2c[nH]cn2)C(=O)N[C@@H](Cc2ccncc2)C(=O)N[C@H](CCCNC(=N)N)C(=O)NCCCOCCOCCOCCCNC(=O)CCC(=O)N[C@@H](CCCCNC(=O)CN2CCN(CC(=O)O)CCN(CC(=O)O)CCN(CC(=O)O)CC2)C(N)=O)NC(=O)[C@H](Cc2ccccc2)NC(=O)[C@H](CCC(=O)O)NC(=O)[C@H]([C@@H](C)O)NC(=O)[C@@H]2CCCN2C(=O)[C@@H]2CCCN2C1=O [3BP-3277, Hex-[Cys(3MeBn)-Pro-Pro-Thr-Glu-Phe-Cys]-Asp-His-Ppa-arg-Ttds-Lys(DOTA)-NH2] (Hexanoyl-CPPTEFCDH[4Pal][dR]-X3; linker 1-7 via mXylylene)	–	–	–
100 to 794	100 to 794	C[C@@H](O)[C@@H]1NC(=O)[C@@H]2CCCN2C(=O)[C@@H]2CCCN2C(=O)[C@@H](NC(=O)CN2CCN(CC(=O)O)CCN(CC(=O)O)CCN(CC(=O)O)CC2)CSCc2cccc(c2)CSC[C@@H](C(=O)N[C@@H](CC(=O)O)C(=O)N[C@@H](Cc2c[nH]cn2)C(=O)N[C@@H](Cc2ccccc2)C(=O)N[C@@H](CCCNC(=N)N)C(=O)N[C@@H](CC(=O)O)C(N)=O)NC(=O)[C@H](Cc2ccccc2)NC(=O)[C@H](CCC(=O)O)NC1=O [3BP-3174, DOTA-[Cys(3MeBn)-Pro-Pro-Thr-Glu-Phe-Cys]-Asp-His-Phe-Arg-Asp-NH2] ({DOTA}-CPPTEFCDHFRD-NH2; linker 1-7 via mXylylene)	–	–	–
100 to 794	10 to 79.4	CSCC[C@H](NC(C)=O)C(=O)N[C@H]1CSCc2cccc(c2)CSC[C@@H](C(=O)N[C@@H](CC(=O)O)C(=O)N[C@@H](Cc2c[nH]cn2)C(=O)N[C@@H](Cc2ccccc2)C(=O)N[C@@H](CCCNC(=N)N)C(=O)N[C@@H](CC(=O)O)C(N)=O)NC(=O)[C@H](Cc2ccccc2)NC(=O)[C@@H](CCC(=O)O)NC(=O)[C@H]([C@@H](C)O)NC(=O)[C@@H]2CCCN2C(=O)[C@@H]2CCCN2C1=O [3BP-3179, Ac-Met-[Cys(3MeBn)-Pro-Pro-Thr-glu-Phe-Cys]-Asp-His-Phe-Arg-Asp-NH2] (Ac-MCPPT[dE]FCDHFRD-NH2; linker 2-8 via mXylylene)	–	–	–

From patent US20220315554A1, “COMPOUNDS COMPRISING A […] LIGAND AND USE THEREOF” (priority 2019, published 2022)
